Here are results for 2 molecules from PMC5482217 (Journal of the American Chemical Society, 2016).

Molecules are shown by their SMILES. ≈ marks a conversion by molar mass, not a printed value. Where only a bound is given, the exact number is not on record here.

One data set has as its system S. flexneri. The class given is cell-based.
In a further data set the test system is S. enteritidis. The class given is cell-based.
Data set [1] has as its system S. aureus clinical isolate that forms biofilms. Type of data set: cell-based.
The next data set relates to E. coli. The class given is cell-based.
The test system of data set [2] is M. tuberculosis. The class given is cell-based.
The test system of another data set is S. aureus. The class given is cell-based.
Another data set concerns B. abortus. Type of data set: cell-based.
The subject of data set [3] is M. tuberculosis. The following applies: after 10 days; cited from earlier work.
Another data set concerns C. elegans. The following applies: in vivo, 50 µM.

On to `NC[C@H]1O[C@H](O[C@H]2[C@H](O)[C@@H](O[C@H]3O[C@H](CO)[C@@H](O)[C@H](N)[C@H]3O)[C@H](N)C[C@@H]2N)[C@H](O)[C@@H](O)[C@@H]1O` [kanamycin], for which the MIC in the data set with S. flexneri amounted to 2 µM (≈ 0.969 µg/mL); in the data set on S. enteritidis, 16 µM (≈ 7.75 µg/mL); in data set [1], 4 µM (≈ 1.94 µg/mL); with E. coli, 2 µM (≈ 0.969 µg/mL); in the data set with M. tuberculosis [2] it was 2 µM (≈ 0.969 µg/mL); with S. aureus it was 2 µM (≈ 0.969 µg/mL). The MIC in the data set with B. abortus stood at 4 µM (≈ 1.94 µg/mL); in the data set on M. smegmatis it was 8 µM (≈ 3.88 µg/mL). Further, the “reduction in M. tuberculosis levels within THP-1 macrophages” value in the data set with M. tuberculosis [3] is reported as “about 50%”. In addition, the “viability of C. elegans” value in the data set with C. elegans is > 90%.

For the molecule `CC[C@H](C)[C@H](NC(=O)CN)C(=O)NCC(=O)N[C@@H](C)C(=O)N[C@H](C(=O)N[C@@H](CC(C)C)C(=O)N[C@@H](CCCCN)C(=O)N[C@H](C(=O)N[C@@H](CC(C)C)C(=O)N[C@H](C(=O)N[C@H](C(=O)NCC(=O)N[C@@H](CC(C)C)C(=O)N1CCC[C@H]1C(=O)N[C@@H](C)C(=O)N[C@@H](CC(C)C)C(=O)N[C@H](C(=O)N[C@@H](CO)C(=O)N[C@@H](Cc1c[nH]c2ccccc12)C(=O)N[C@H](C(=O)N[C@@H](CCCCN)C(=O)N[C@@H](CCCNC(=N)N)C(=O)N[C@@H](CCCCN)C(=O)N[C@@H](CCCNC(=N)N)C(=O)N[C@@H](CCC(N)=O)C(=O)N[C@@H](CCC(N)=O)C(N)=O)[C@@H](C)CC)[C@@H](C)CC)[C@@H](C)O)[C@@H](C)O)C(C)C)C(C)C` [melittin], the “viability of C. elegans” value in the data set with C. elegans is listed as “no live worms”.
